In patent US5854252A, “Dihalotriazolopyrimidine derivatives” (Shell Internationale Research Maatschappij B.V., priority 1993, dated 1998):
Converted amounts (≈) assume the structure as drawn.

Legend:
[1] = tested on: Pseudocercosporella herpotrichoides; assay: Activity against wheat eyespot in-vitro (PHI), Example 53(j); type: cell-based; conditions: 50 ppm, 12 days at 20° C.
Protocol: This test measures the in vitro activity of compounds against the fungus causing wheat eyespot. The test compound is dissolved or suspended in acetone and is added into 4 ml aliquots of half strength Potato Dextrose Broth dispensed in 25-compartment petri dishes to give a final concentration of 50 ppm compound and 2.5% acetone. Each compartment is inoculated with a 6 mm diameter plug of agar/mycelium taken from a 14 day old culture of P. herpotrichoides. Plates are incubated at 20° C. for 12 days until the assessment of mycelial growth. The extent of disease control in all the above tests is expressed as a rating compared with either an untreated control or a diluent-sprayed-control, according to the criteria: […]

[2] = tested on: Pseudocercosporella herpotrichoides; assay: MIC by serial dilution, Example 55, Pseudocercosporella herpotrichoides; type: cell-based; conditions: Oculimacula yallundae; microtitre plates, 20° C., 6-8 days
Protocol: (§1) The MIC (Minimum Inhibition Concentration)-values were determined by serial dilution tests using 48-well microtitre plates. The dilution of the test compounds in the nutrient solution and the distribution to the wells were carried out by a TECAN RSP 5000 robotic sample processor.
(§2) For preparation of the nutrient solution, V8 juice (Trade Mark) was neutralised with calcium carbonate and centrifuged. The supernatant was diluted with distilled water (1:5) to the final concentration.
(§3) The fungi (Alternaria solani, Botrytis cinerea, Pseudocercosporella herpotrichoides, Micronectriella nivalis, Gaeumannomyces graminis) were added into the wells as a droplet of spore suspension. The microtitre plates were then incubated at 20° C. for 6-8 days. The MIC-value, which was defined to be the lowest concentration in the dilution series without mycelial growth, was determined by visual inspection of the plates.

Micronectriella nivalis = assay: MIC by serial dilution, Example 55, Micronectriella nivalis; type: cell-based; conditions: microtitre plates, 20° C., 6-8 days
Protocol: as §1, §2, §3

Gaeumannomyces graminis = assay: MIC by serial dilution, Example 55, Gaeumannomyces graminis; type: cell-based; conditions: microtitre plates, 20° C., 6-8 days
Protocol: as §1, §2, §3

Alternaria solani [3] = assay: MIC by serial dilution, Example 55, Alternaria solani; type: cell-based; conditions: microtitre plates, 20° C., 6-8 days
Protocol: as §1, §2, §3

Botrytis cinerea [4] = assay: MIC by serial dilution, Example 55, Botrytis cinerea; type: cell-based; conditions: microtitre plates, 20° C., 6-8 days
Protocol: as §1, §2, §3

Plasmopara viticola = assay: Direct protectant activity against vine downy mildew (PVP), Example 53(c); type: in vivo; conditions: protectant foliar spray, 1000 ppm
Protocol: The test is a direct protectant one using a foliar spray. The lower surface of leaves of whole vine plants (cv Cabernet Sauvignon) are sprayed with the test compound at a dosage of 1000 ppm using an automated sprayline as described under (a), and after a subsequent period of 24 hours under normal glasshouse conditions the lower surfaces of the leaves are inoculated by spraying with an aqueous suspension containing 2.5×10^4 zoosporangia/ml. The inoculated plants are kept for 24 hours in a high humidity cabinet, 5 days under normal glasshouse conditions and then returned for a further 24 hours to high humidity. Assessment is based on the percentage of leaf area covered by sporulation compared with that on control leaves. The extent of disease control in all the above tests is expressed as a rating compared with either an untreated control or a diluent-sprayed-control, according to the criteria: […]

Leptosphaeria nodorum = assay: Activity against wheat leafspot (LN), Example 53(f); type: in vivo; conditions: therapeutic foliar spray, 1000 ppm
Protocol: The test is a direct therapeutic one, using a foliar spray. Leaves of wheat plants (cv Norman), at the single leaf stage, are inoculated by spraying with an aqueous suspension containing 1×10^6 spores/ml. The inoculated plants are kept for 24 hours in a high humidity compartment prior to treatment. The plants are sprayed with a solution of the test compound at a dosage of 1000 ppm using an automated sprayline as described under (a). After drying, the plants are kept for 6-8 days at 22° C. and moderate humidity, followed by assessment. Assessment is based on the density of lesions per leaf compared with that on leaves of control plants. The extent of disease control in all the above tests is expressed as a rating compared with either an untreated control or a diluent-sprayed-control, according to the criteria: […]

Alternaria solani [5] = assay: MIC in the serial dilution test, Example 56, Alternaria solani; type: cell-based; conditions: microtiter serial dilution, 6-12 days
Protocol: (§4) The serial dilution test was carried out using Microtiter test with 24 or 48 wells per plate. The test compounds were used a 1000 μg/ml aqueous stock suspension containing 20% acetone which was then sterile filtered in a 0.2μ filter. The dilution of the sterile fungicide suspension with the nutrient solution and the subsequent pipetting into the different wells was carried out using a TECAN RSP 5000 Robotic Sample Processor. The concentrations tested ranged from 100 μg/ml down to 0.05 μg/ml. 12 Dilution steps were made. The nutrient solution was chosen according to the nutrient requirements of the pathogen. The inoculum was added as a droplet (50 μl) of a spore suspension (5×10^8 /ml) into the wells. After 6-12 days incubation at suitable temperatures, the MIC value was determined by visual estimation. The lowest concentration in the dilution row without mycelial growth was defined as the MIC value.

Botrytis cinerea [6] = assay: MIC in the serial dilution test, Example 56, Botrytis cinerea; type: cell-based; conditions: microtiter serial dilution, 6-12 days
Protocol: as §4

Rhizoctonia solani = assay: MIC in the serial dilution test, Example 56, Rhizoctonia solani; type: cell-based; conditions: microtiter serial dilution, 6-12 days
Protocol: as §4

Puccinia arachidis = assay: Field pot test with Puccinia arachidis on peanuts; type: in vivo; conditions: topical, 456 h, 500 μg/ml spray, 1000 l/ha, 19 days after treatment, Abbott formula, read-out: % efficacy Puccinia arachidis
Protocol: 15 seeds of peanuts were sown in pots filled with a soil substrate. When the plants have developed 4 true leaves the fungicides and the test compounds were applied using a hand sprayer. The test compounds were applied at a concentration of 500 μg/ml in a […] containing 10% acetone and 0.05% Triton X 155 in water. The total amount of […] corresponded to 1000 l/ha. Six replicates per treatment were used. 2 Days after treatment the pots were exposed to peanut plants in the field on which the fungus, Puccinia arachidis, had formed sporulating pustules on the leaves. The assessment was carried out 19 days after treatment by estimating the percentage of infected leaf area. The % efficacy was calculated using the Abbott formula.

Cercospora arachidicola = assay: Field pot test with Cercospora arachidicola on peanuts; type: in vivo; conditions: Mycosphaerella arachidis, topical, 360 h, 500 μg/ml spray, 1000 l/ha, 15 days after treatment, Abbott formula, read-out: % efficacy Cercospora arachidicola
Protocol: 15 Seeds of peanuts were sown in pots filled with a soil substrate. When the plants have developed 4 true leaves (approx. 12-14 days after seeding) the fungicides and the test compounds were applied using a hand sprayer. The test compounds were applied at a concentration of 500 μg/ml in a […] containing 10% acetone and 0.05% Triton X 155 in water. The total amount of […] corresponded to 1000 l/ha. Six replicates (pots) per treatment were used. 2 days after treatment the pots were exposed to peanut plants in the field on which the fungus, Cercospora arachidicola, had formed sporulating lesions. The assessment was carried out 15 days after treatment by estimating the percentage of infected leaf area. The % efficacy was calculated using the Abbott formula.

| SMILES | MIC [2] | MIC (Micronectriella nivalis) | MIC (Gaeumannomyces graminis) | Fungicidal Activity PHI (disease control rating) [1] | other results |
| --- | --- | --- | --- | --- | --- |
| FC(F)(F)c1ccccc1-c1c(Br)nc2ncnn2c1Br [Example 44] | – | – | – | – | MIC (Alternaria solani [3]): > 100 µg/mL; MIC (Botrytis cinerea [4]): > 100 µg/mL |
| Clc1nc2ncnn2c(Cl)c1-c1cccc2ccccc12 [Example 23] | – | – | – | 1 (about 50-80% disease control) | – |
| Fc1cccc(-c2c(Br)nc3ncnn3c2Br)c1 [Example 43] | – | – | – | – | MIC (Alternaria solani [3]): > 100 µg/mL; MIC (Botrytis cinerea [4]): > 100 µg/mL |
| COc1ccccc1-c1c(Cl)nc2ncnn2c1Cl [Example 5] | – | – | – | 2 (greater than 80% disease control) | Fungicidal Activity PVP (disease control rating) (Plasmopara viticola): 2 (greater than 80% disease control) |
| Clc1nc2ncnn2c(Cl)c1-c1ccc(-c2ccccc2)cc1 [Example 13] | > 100 µg/mL | 6.25 µg/mL (≈ 18.3 µM) | 0.39 µg/mL (≈ 1.14 µM) | 2 (greater than 80% disease control) | – |
| COc1cccc(-c2c(Cl)nc3ncnn3c2Cl)c1 [Example 4] | – | – | – | 2 (greater than 80% disease control) | Fungicidal Activity PVP (disease control rating) (Plasmopara viticola): 1 (about 50-80% disease control) |
| CCOc1cccc(-c2c(Cl)nc3ncnn3c2Cl)c1OCC [Example 24] | – | – | – | 2 (greater than 80% disease control) | Fungicidal Activity LN (disease control rating) (Leptosphaeria nodorum): 1 (about 50-80% disease control) |
| CCOc1ccc(-c2c(Cl)nc3ncnn3c2Cl)cc1 [Example 3] | 6.25 µg/mL (≈ 20.2 µM) | 0.78 µg/mL (≈ 2.52 µM) | 0.2 µg/mL (≈ 0.647 µM) | – | – |
| CC(C)c1c(Cl)nc2ncnn2c1Cl [Example 51] | – | – | – | – | MIC (Alternaria solani [5]): 12.5 µg/mL (≈ 54.1 µM); MIC (Botrytis cinerea [6]): 12.5 µg/mL (≈ 54.1 µM); MIC (Rhizoctonia solani): 25 µg/mL (≈ 108 µM) |
| FC(F)(F)c1ccc(-c2c(Br)nc3ncnn3c2Br)cc1 [Example 42] | – | – | – | – | MIC (Alternaria solani [3]): > 100 µg/mL; MIC (Botrytis cinerea [4]): > 100 µg/mL |
| Fc1ccc(-c2c(Cl)nc3ncnn3c2Cl)cc1 [Example 11] | 3.13 µg/mL (≈ 11.1 µM) | 0.39 µg/mL (≈ 1.38 µM) | 0.2 µg/mL (≈ 0.706 µM) | 2 (greater than 80% disease control) | pest or weed control at 500 µg/mL (Puccinia arachidis): 25%; pest or weed control at 500 µg/mL (Cercospora arachidicola): 33% |
| FC(F)(F)Oc1ccc(-c2c(Cl)nc3ncnn3c2Cl)cc1 [Example 9] | 12.5 µg/mL (≈ 35.8 µM) | 0.78 µg/mL (≈ 2.23 µM) | 0.1 µg/mL (≈ 0.286 µM) | 2 (greater than 80% disease control) | pest or weed control at 500 µg/mL (Puccinia arachidis): 25%; pest or weed control at 500 µg/mL (Cercospora arachidicola): 50% |
| Cc1cccc(C)c1Oc1c(Cl)nc2ncnn2c1Cl [Example 48] | – | – | – | – | MIC (Alternaria solani [5]): 25 µg/mL (≈ 80.9 µM); MIC (Botrytis cinerea [6]): > 100 µg/mL; MIC (Rhizoctonia solani): > 100 µg/mL |

Continued, in another order:

| MIC [2] | MIC (Micronectriella nivalis) | MIC (Gaeumannomyces graminis) | SMILES | Fungicidal Activity PHI (disease control rating) [1] | other results |
| --- | --- | --- | --- | --- | --- |
| 25 µg/mL (≈ 76.9 µM) | 6.25 µg/mL (≈ 19.2 µM) | 0.78 µg/mL (≈ 2.4 µM) | COc1ccc(-c2c(Cl)nc3ncnn3c2Cl)cc1OC [Example 14] | 2 (greater than 80% disease control) | – |
| 12.5 µg/mL (≈ 42.6 µM) | 3.13 µg/mL (≈ 10.7 µM) | 0.78 µg/mL (≈ 2.66 µM) | Cc1ccc(-c2c(Cl)nc3ncnn3c2Cl)cc1C [Example 31] | – | – |
| 25 µg/mL (≈ 88.3 µM) | 12.5 µg/mL (≈ 44.2 µM) | 0.78 µg/mL (≈ 2.76 µM) | Fc1cccc(-c2c(Cl)nc3ncnn3c2Cl)c1 [Example 17] | 2 (greater than 80% disease control) | – |
